According to US20170008888A1 (KYORIN PHARMACEUTICAL CO., LTD., priority 2014, published 2017):
Marks after values point to notes of the source that are not given here.

Key:
MV-4-11 cells = assay: MV-4-11 proliferation EC50 assay (CellTiter-Glo); type: cell-based; conditions: Homo sapiens, MV4-11, 48 h, read-out: MV-4-11 proliferation EC50, ave. ± S.D.
Protocol: Human biphenotypic B myelomonocytic leukemia MV-4-11 cells (ATCC, Manassas, Va.) were treated with test compounds at 2e5 cells/ml in IMDM medium containing 10% (v/v) FBS (Life Technologies, Grand Island, N.Y.) and 1×Pen/Strep Amphotericin B (Lonza, Allendale, N.J.). Compounds were tested at 25 μM down by ⅓ in a 9 point serial dilution series. Cells were incubated for 48 h at 37° C. in a humidified atmosphere at 5% CO2. MV-4-11 cell proliferation was then indirectly determined via cellular ATP content using the CellTiter-Glo® Luminescent Cell Viability Assay (Promega, Madison, Wis.) as per the manufacturer's instructions. Briefly, experimental plates were equilibrated at room temperature for 30 minutes. An equal volume of CellTiter-Glo® reagent was added to each well and incubated for 15 minutes at room temperature. Luminescent signal was read using the Wallac 1420 Victor^2 multilabel microplate reader (Perkin Elmer, Waltham, Mass.). EC50 values were determined using GraphPad Prism software v5.04.

[1] = tested on: DNFB-induced ear inflammation mouse model; assay: DNFB-induced ear inflammation (contact hypersensitivity) mouse model: ear weight; type: in vivo, mouse (Balb/c); conditions: 3 mg/kg PO, QD on Day 5 (elicitation)
Protocol: (§1) In vivo T-cell mediated immune response was examined in a mouse model of CHS using the hapten dinitrofluorobenzene (DNFB) as the induction agent. Method for sensitization and elicitation of DNFB-induced CHS was modified from Xu et al. J. Exp. Med. 1996. 183:1001-1012. On Days 0 and 1 (sensitization), 20 μL of 0.5% v/v DNFB in acetone:olive oil (4:1) was applied to each hindpaw of 8 week old male mice (Balb/c, Charles River Laboratories; 10 mice per group unless otherwise noted). On Day 5 (elicitation) 10 μL of 0.2% v/v DNFB in acetone: olive oil (4:1) was applied to the dorsal surface of the right ear of each animal; 10 μL of acetone: olive oil (4:1) was applied to the dorsal surface of the left ear as control. Treatments were administered by group as indicated in the table below; on days when DNFB was used, the QD and the morning dose of BID as appropriate were administered 30 minutes-1 hr. prior to DNFB application. […] Approximately 24 hours after elicitation (Day 6), a 7 mm tissue punch from the central portion of both ears was collected and wet weights measured. The primary functional assessment was the difference in wet weights of the right (DNFB) vs. left (vehicle) ears compared to the vehicle treatment (Vehicle1-S) as an indicator of inflammation (Table 17). Ear tissue punches were flash frozen, stored at −70° C. and analyzed for cytokines (see below). Body weights of the mice were measured at baseline and at end of study, and there were no significant changes in weight in any treatment group during the study (data not shown).

[2] = tested on: DNFB-induced ear inflammation mouse model; assay: DNFB-induced ear inflammation mouse model: cytokine concentrations in ear tissue; type: in vivo, mouse (Balb/c); conditions: Dex 3 mg/kg PO, regimen E
Protocol: as §1, with “Method for sensitization and elicitation of DNFB-induced CHS was modified from Xu et al. J. Exp. Med. 1996. 183:1001-1012.” left out, “below).” for “below). Body weights of the mice were measured at baseline and at end of study, and there were no significant changes in weight in any treatment group during the study (data not shown).”
Cytokine concentrations after DNFB induction and treatment were analyzed in the weighed and flash frozen tissues of the right (DNFB) and left (control) 7 mm ear punches. The ear tissues were stored at −70° C. until prepared for analysis as follows. Left or right ear tissues from the same treatment group were pooled and crushed with mortar and pestle under liquid nitrogen. Tissue representing 7-8 ear punches by weight was homogenized in Buffer A (50 mM HEPES pH 7.4, 100 mM NaCl) containing 1 tablet EDTA-free Protease Inhibitor (Thermo Fisher Scientific, Rockford, Ill.) per 10 mL, 1× Phosphatase Inhibitor Cocktail II (AG Scientific, San Diego, Calif.), and 1 mM PMSF (Sigma, St. Louis, Mo.). Homogenization was performed in Lysing Matrix D tubes (MP Biomedicals, Solon, Ohio), using the FastPrep-24 instrument (MP Biomedicals) at a speed setting of 6 for 4 cycles of 30 seconds, with cooling on ice in between cycles. The tubes were then centrifuged at 1,000×g for 10 min at 4° C. Supernatant was collected and briefly sonicated using the Microson probe sonicator at setting 3 (Misonix, Farmingdale, N.Y.) before centrifuging again at 10,000×g for 10 min at 4° C. The supernatant was ultracentrifuged at 100,000×g for 1 h at 4° C. in the Optima Max-E (Beckman Coulter, Indianapolis, Ind.) to separate soluble and membrane protein fractions. The soluble (supernatant) fraction was collected and protein concentrations determined using the Dc protein kit (Bio-Rad, Hercules, Calif.). Soluble ear proteins were analyzed in triplicate for cytokine response at a final protein concentration of 4 mg/ml using the Bio-Plex Pro Mouse Cytokine 23-Plex panel (Bio-Rad) as per manufacturer's protocols. Magnetic beads were read on the Bio-Plex MAGPIX multiplex reader instrument using the accompanying xPONENT 4.2 acquisition software (Bio-Rad Laboratories, Hercules, Calif.). Data were analyzed via the Bio-Plex Manager software v6.1 (Bio-Rad Laboratories). Response was calculated as a percentage of the cytokine concentrations measured in the right (DNFB) ears of vehicle 1 dosed (S regimen, i.e. dosed Day 0-5) mice (Table 18).

[3] = tested on: Imiquimod-induced psoriasis mouse model; assay: Imiquimod (IMQ)-induced acute model of psoriasis in mouse: skin thickness, erythema, scaling; type: in vivo, mouse (Balb/c)
Protocol: Material and methods for the IMQ study were adapted from van der Fits et al. J Immunol., 2009, 182: 5836-5845. Eight week old male Balb/c mice (Harlan) received a daily topical dose of 62.5 mg 5% IMQ cream (Aldara™, Medicis) equivalent to 3.125 mg IMQ, on the shaved back (approximately 2×3.5 cm patch) and dorsal surface of the right ear for 6 consecutive days. Sham control mice were treated similarly with control cream (Hydrous Emulsified Base, HEB, Cream, Fagron). Treatments were administered by group as indicated in Table 1 below prior to daily application of IMQ (QD and morning dose of BID regimens), n=10 for all groups. […] Body weights and scoring of induced clinical disease were performed after dosing (Days 1-7) but prior to IMQ application (Days 1-6) on Days 1 (baseline), 3, 4, 6, 8. Mice were sacrificed on Day 8 and treated back skin tissue collected and divided for fixation for histopathology (a 12 mm punch in mid-back) the remainder flash frozen; right (IMQ) and left (control) ears, spleen (after wet weight) and lung were also individually collected and flash frozen, and stored at −70° C. for subsequent biochemical analyses. Statistics were performed using one-way ANOVA with Dunnett's post-hoc test comparing treated groups to the vehicle group, using InStat software (GraphPad, La Jolla, Calif.).
The severity of clinical disease was assessed by
1) skin thickness dial gauge micrometer measurements (duplicate) of the ears and the dorsal skin at the midline of the back (equal to double true measure of dorsal skin thickness)
2) erythema and scaling, independently scored on a scale from 0-4: 0=none, 1=slight, 2=moderate, 3=marked, 4=very marked with intermediate increments of 0.5 allowed.
Clinical disease assessments included erythema, scaling, skin thickness and cumulative disease severity scores and the change in skin thickness of the ears and dorsal back skin over time compared to baseline measurements (Tables 19 and 20). Body weights of the mice were measured at baseline and at end of study, and there were no significant changes in weight in any treatment group during the study (data not shown).

[4] = Day 1 (baseline), Dexamethasone 3 mg/kg PO
[5] = Day 3, Dexamethasone 3 mg/kg PO
[6] = Day 4, Dexamethasone 3 mg/kg PO
[7] = Day 6, Dexamethasone 3 mg/kg PO
[8] = Day 8, Dexamethasone 3 mg/kg PO

CN1C(=O)c2ccccc2N(C)c2nc(Nc3ccc(N4CCC(O)CC4)cn3)ncc21 [Compound IV-5 in WO 2010/080712]
EC50 (MV-4-11 cells): 1.12 µM

C[C@@H]1C[C@H]2[C@@H]3CCC4=CC(=O)C=C[C@]4(C)[C@@]3(F)[C@@H](O)C[C@]2(C)[C@@]1(O)C(=O)CO [Dexamethasone, reference compound]
% Reduction Weight Increase Vs. Vehicle 1 Weight Increase [1]: −60.0% | IFN-γ: Mean % Cytokine Concentration in DNFB Treated Right Ears versus Vehicle 1-Dosed (S) Mice [2]: 74% | IL-1α: Mean % Cytokine Concentration in DNFB Treated Right Ears versus Vehicle 1-Dosed (S) Mice [2]: 189% | IL-1β: Mean % Cytokine Concentration in DNFB Treated Right Ears versus Vehicle 1-Dosed (S) Mice [2]: 53% | IL-3: Mean % Cytokine Concentration in DNFB Treated Right Ears versus Vehicle 1-Dosed (S) Mice [2]: 76% | IL-5: Mean % Cytokine Concentration in DNFB Treated Right Ears versus Vehicle 1-Dosed (S) Mice [2]: 58% | IL-6: Mean % Cytokine Concentration in DNFB Treated Right Ears versus Vehicle 1-Dosed (S) Mice [2]: 36% | IL-12 (p40): Mean % Cytokine Concentration in DNFB Treated Right Ears versus Vehicle 1-Dosed (S) Mice [2]: 59% | IL-13: Mean % Cytokine Concentration in DNFB Treated Right Ears versus Vehicle 1-Dosed (S) Mice [2]: 81% | IL-17A: Mean % Cytokine Concentration in DNFB Treated Right Ears versus Vehicle 1-Dosed (S) Mice [2]: 63% | KC: Mean % Cytokine Concentration in DNFB Treated Right Ears versus Vehicle 1-Dosed (S) Mice [2]: 29% | MCP-1: Mean % Cytokine Concentration in DNFB Treated Right Ears versus Vehicle 1-Dosed (S) Mice [2]: 41% | MIP-1α: Mean % Cytokine Concentration in DNFB Treated Right Ears versus Vehicle 1-Dosed (S) Mice [2]: 53% | MIP-1β: Mean % Cytokine Concentration in DNFB Treated Right Ears versus Vehicle 1-Dosed (S) Mice [2]: 39% | RANTES: Mean % Cytokine Concentration in DNFB Treated Right Ears versus Vehicle 1-Dosed (S) Mice [2]: 42% | TNF-α: Mean % Cytokine Concentration in DNFB Treated Right Ears versus Vehicle 1-Dosed (S) Mice [2]: 74% | Clinical Score Erythema (0-4), AVG Score [3, 4]: 0 | Clinical Score Scaling (0-4), AVG Score [3, 4]: 0 | % Mean DORSAL BACK THICKNESS versus day 1, AVG [3, 5]: 3.08% | % Mean LEFT EAR THICKNESS [Control] versus day 1, AVG [3, 5]: −9.64% | % Mean RIGHT EAR THICKNESS [IMQ] versus day 1, AVG [3, 5]: −5.32% | Clinical Score Erythema (0-4), AVG Score [3, 5]: 0.05 | Clinical Score Scaling (0-4), AVG Score [3, 5]: 0 | % Mean DORSAL BACK THICKNESS versus day 1, AVG [3, 6]: 13.71% | % Mean LEFT EAR THICKNESS [Control] versus day 1, AVG [3, 6]: −10.38% | % Mean RIGHT EAR THICKNESS [IMQ] versus day 1, AVG [3, 6]: −2.08% | Clinical Score Erythema (0-4), AVG Score [3, 6]: 0.65 | Clinical Score Scaling (0-4), AVG Score [3, 6]: 0.2 | % Mean DORSAL BACK THICKNESS versus day 1, AVG [3, 7]: 13.04** % | % Mean LEFT EAR THICKNESS [Control] versus day 1, AVG [3, 7]: −9.61% | % Mean RIGHT EAR THICKNESS [IMQ] versus day 1, AVG [3, 7]: 10.54** % | Clinical Score Erythema (0-4), AVG Score [3, 7]: 0.45 | Clinical Score Scaling (0-4), AVG Score [3, 7]: 0.5 | % Mean DORSAL BACK THICKNESS versus day 1, AVG [3, 8]: 14.32** % | % Mean LEFT EAR THICKNESS [Control] versus day 1, AVG [3, 8]: −14.05% | % Mean RIGHT EAR THICKNESS [IMQ] versus day 1, AVG [3, 8]: 10.40** % | Clinical Score Erythema (0-4), AVG Score [3, 8]: 0.45 | Clinical Score Scaling (0-4), AVG Score [3, 8]: 0.35
